From ChEMBL document CHEMBL1201862, “PubChem BioAssay data set” (2004)
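Method: 48-hour compound exposure of cells in 96-well plates, five concentrations, linear interpolation of endpoints. Abbreviation: GI50, concentration required for 50% inhibition of growth.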 Active and inactive are the calls of the source. Rule as the data show it: active = GI50 up to about 1.1 µM and inactive = higher.

What was measured:
Assay in all cases: NCI-60 cell line screen, 48 h
ACHN = test system: ACHN
BT-549 = test system: BT-549
CCRF-CEM = test system: CCRF-CEM
EKVX = test system: EKVX
HOP-92 = test system: HOP-92
HT-29 = test system: HT-29
Hs-578T = test system: Hs-578T
K562 = test system: K562
MDA-MB-435 = test system: MDA-MB-435
MDA-N = test system: MDA-N
NCI/ADR-RES = test system: NCI/ADR-RES
OVCAR-5 = test system: OVCAR-5
RXF 393 = test system: RXF 393
SK-MEL-5 = test system: SK-MEL-5
SN12C = test system: SN12C
SW-620 = test system: SW-620
TK-10 = test system: TK-10
U-251 = test system: U-251
UACC-257 = test system: UACC-257
UACC-62 = test system: UACC-62

| Structure (SMILES) | GI50 (ACHN) | GI50 (BT-549) | GI50 (CCRF-CEM) | GI50 (EKVX) | GI50 (HOP-92) | GI50 (HT-29) | GI50 (Hs-578T) | GI50 (K562) | GI50 (MDA-MB-435) | GI50 (MDA-N) | GI50 (NCI/ADR-RES) | GI50 (OVCAR-5) | GI50 (RXF 393) | GI50 (SK-MEL-5) | GI50 (SN12C) | GI50 (SW-620) | GI50 (TK-10) | GI50 (U-251) | GI50 (UACC-257) | GI50 (UACC-62) |
| --- | --- | --- | --- | --- | --- | --- | --- | --- | --- | --- | --- | --- | --- | --- | --- | --- | --- | --- | --- | --- |
| CCN1C(Cl)=NS(=O)(=O)c2ccccc21 | 16.5 µM (inactive) | 17.5 µM (inactive) | 3.9 µM (inactive) | 23.8 µM (inactive) | 18.8 µM (inactive) | 18.8 µM (inactive) | 36.9 µM (inactive) | 7.83 µM (inactive) | 49.7 µM (inactive) | 29.1 µM (inactive) | 26.5 µM (inactive) | 26.4 µM (inactive) | 17.3 µM (inactive) | 13.6 µM (inactive) | 18.6 µM (inactive) | 28.1 µM (inactive) | 18.5 µM (inactive) | 62.1 µM (inactive) | 28 µM (inactive) | 9.06 µM (inactive) |
| Cc1cc2c3ccccc3n(C)c2c2c1C(=O)C=CC2=O | 20.9 µM (inactive) | 13.9 µM (inactive) | 2.42 µM (inactive) | 12 µM (inactive) | 12.1 µM (inactive) | 9.62 µM (inactive) | 22.3 µM (inactive) | 5.33 µM (inactive) | 18.9 µM (inactive) | 12.9 µM (inactive) | 33.9 µM (inactive) | 21.1 µM (inactive) | 6.64 µM (inactive) | 27.4 µM (inactive) | 18.1 µM (inactive) | 10.7 µM (inactive) | 16.5 µM (inactive) | 17.3 µM (inactive) | 13.2 µM (inactive) | 16.3 µM (inactive) |
| CCOC(=O)[C@@H]1CCN2CN(c3ccc(OC)cc3)N=C(c3ccccc3)[C@@]12c1ccccc1 | 24.8 µM (inactive) | 21.4 µM (inactive) | 23.7 µM (inactive) | 29.4 µM (inactive) | 12.6 µM (inactive) | 17.1 µM (inactive) | 23.4 µM (inactive) | 66.8 µM (inactive) | 26.5 µM (inactive) | 23.2 µM (inactive) | 28.3 µM (inactive) | 32.2 µM (inactive) | 14.7 µM (inactive) | 13.2 µM (inactive) | 16 µM (inactive) | 32.1 µM (inactive) | 29.3 µM (inactive) | 28.9 µM (inactive) | 19.4 µM (inactive) | 15.5 µM (inactive) |
| OC(COc1ccc(Cl)cc1Cl)CN1CCCC1 (stereo not drawn) | > 100 µM (inactive) | 30.5 µM (inactive) | 87.9 µM (inactive) | 21.1 µM (inactive) | 75.9 µM (inactive) | 24.8 µM (inactive) | 58.3 µM (inactive) | 71.6 µM (inactive) | 74.1 µM (inactive) | 56.6 µM (inactive) | > 100 µM (inactive) | > 100 µM (inactive) | > 100 µM (inactive) | 27.9 µM (inactive) | > 100 µM (inactive) | > 100 µM (inactive) | > 100 µM (inactive) | > 100 µM (inactive) | 24.2 µM (inactive) | 21.7 µM (inactive) |
| COc1cc(-c2nc3ccccn3c2/N=C/c2cc(Br)cc(Br)c2O)ccc1O | 48.8 µM (inactive) | 20.3 µM (inactive) | 17.7 µM (inactive) | 19.1 µM (inactive) | 23.4 µM (inactive) | 22.3 µM (inactive) | 26.1 µM (inactive) | 28.6 µM (inactive) | 22.4 µM (inactive) | 22.4 µM (inactive) | 22 µM (inactive) | 31.4 µM (inactive) | 32.9 µM (inactive) | 25.5 µM (inactive) | 19.5 µM (inactive) | 26.4 µM (inactive) | 23.9 µM (inactive) | 15.6 µM (inactive) | 27.1 µM (inactive) | 27 µM (inactive) |
| CCCS(=O)OC1C(C2COC(C)(C)O2)OC2OC(C)(C)OC21 (stereo not drawn) | 13.7 µM (inactive) | 12.1 µM (inactive) | 3.15 µM (inactive) | 16.4 µM (inactive) | 5.87 µM (inactive) | 3.89 µM (inactive) | 4.46 µM (inactive) | 5.65 µM (inactive) | 6.31 µM (inactive) | 15.1 µM (inactive) | 17.5 µM (inactive) | 12.2 µM (inactive) | 9.59 µM (inactive) | 13.2 µM (inactive) | 12.5 µM (inactive) | 8.49 µM (inactive) | 16.2 µM (inactive) | 8.26 µM (inactive) | 13.6 µM (inactive) | 12.1 µM (inactive) |
| CC1OC(O[C@H]2CC[C@]3(C=O)[C@H]4CC[C@]5(C)[C@H](C6=CC(=O)OC6)CC[C@]5(O)[C@@H]4C=C[C@]3(O)C2)CC(O)C1O (stereo partly drawn) | 0.106 µM (active) | 0.224 µM (active) | 0.102 µM (active) | 0.261 µM (active) | 0.577 µM (active) | 0.321 µM (active) | 0.239 µM (active) | 0.294 µM (active) | 0.346 µM (active) | 0.332 µM (active) | 0.27 µM (active) | 0.547 µM (active) | 0.0661 µM (active) | 0.0991 µM (active) | 0.117 µM (active) | 0.313 µM (active) | 0.29 µM (active) | 0.355 µM (active) | 0.579 µM (active) | 0.434 µM (active) |
| COc1ccc(N2C(=O)[C@H]3[C@H]4CC(C(C)(C)C)CC[C@H]4c4c(n(C)c5ccccc45)[C@H]3C2=O)cc1 (stereo partly drawn) | > 100 µM (inactive) | > 100 µM (inactive) | > 100 µM (inactive) | > 46.5 µM (inactive) | > 100 µM (inactive) | > 100 µM (inactive) | 56.1 µM (inactive) | > 95.3 µM (inactive) | > 100 µM (inactive) | > 100 µM (inactive) | > 100 µM (inactive) | > 10 µM (inactive) | > 23.7 µM (inactive) | 4.65 µM (inactive) | > 56.2 µM (inactive) | > 100 µM (inactive) | > 10 µM (inactive) | > 56.2 µM (inactive) | > 100 µM (inactive) | 53.5 µM (inactive) |
| CC(=O)OC1CC2(C)C(=CC1C1SCCS1)CCC1C2CCC2(C)C(OC(C)=O)CCC12 (stereo not drawn) | > 100 µM (inactive) | > 100 µM (inactive) | > 100 µM (inactive) | > 100 µM (inactive) | 66.4 µM (inactive) | > 100 µM (inactive) | 14.6 µM (inactive) | > 100 µM (inactive) | > 100 µM (inactive) | > 100 µM (inactive) | > 100 µM (inactive) | > 100 µM (inactive) | 19.3 µM (inactive) | > 100 µM (inactive) | > 100 µM (inactive) | > 100 µM (inactive) | 64.1 µM (inactive) | 32.3 µM (inactive) | > 100 µM (inactive) | > 100 µM (inactive) |
| CSCCCNC(=O)c1csc(-c2csc(CCNC(=O)CNC(=O)OC(C)(C)C)n2)n1 | > 100 µM (inactive) | 35.4 µM (inactive) | 43.1 µM (inactive) | > 100 µM (inactive) | > 100 µM (inactive) | > 100 µM (inactive) | > 100 µM (inactive) | > 100 µM (inactive) | > 100 µM (inactive) | > 100 µM (inactive) | > 100 µM (inactive) | > 100 µM (inactive) | > 100 µM (inactive) | 47.4 µM (inactive) | > 100 µM (inactive) | > 100 µM (inactive) | > 100 µM (inactive) | > 100 µM (inactive) | > 100 µM (inactive) | 28.6 µM (inactive) |
| Cc1cc(O)c(C(C)C)cc1/N=C/c1ccccc1O | 11.5 µM (inactive) | 8.3 µM (inactive) | 0.0242 µM (active) | 7.87 µM (inactive) | 0.621 µM (active) | 24.2 µM (inactive) | 8.73 µM (inactive) | 1.26 µM (inactive) | 1.99 µM (inactive) | 3.72 µM (inactive) | 3.12 µM (inactive) | 20.6 µM (inactive) | 1.34 µM (inactive) | 6.08 µM (inactive) | 4.54 µM (inactive) | 1.98 µM (inactive) | 13.1 µM (inactive) | 3.55 µM (inactive) | 9.35 µM (inactive) | 8.91 µM (inactive) |
| N#Cc1c(N)c2c(c(-c3ccccc3)c1-c1ccccc1)C(=O)N(Nc1ccccc1)C2=O | 59.2 µM (inactive) | 56.1 µM (inactive) | 31.6 µM (inactive) | 42.4 µM (inactive) | 48.1 µM (inactive) |  | 95.3 µM (inactive) | 33.6 µM (inactive) | 68.5 µM (inactive) | 36.8 µM (inactive) | 38.2 µM (inactive) | 27 µM (inactive) | 19.3 µM (inactive) | 28.8 µM (inactive) | 30.7 µM (inactive) | > 100 µM (inactive) | 42.1 µM (inactive) | 93.5 µM (inactive) | 48.6 µM (inactive) | 49.9 µM (inactive) |
| CO[C@H]1C[C@@H]2CC[C@@H](C)[C@@](O)(O2)C(=O)C(=O)N2CCCC[C@H]2C(=O)O[C@H]([C@H](C)C[C@@H]2CC[C@@H](OC(=O)C(C)(CO)CO)[C@H](OC)C2)CC(=O)[C@H](C)/C=C(\C)[C@@H](O)[C@@H](OC)C(=O)[C@H](C)C[C@H](C)/C=C/C=C/C=C/1C [TEMSIROLIMUS] | 0.00723 µM (active) | 0.00904 µM (active) | 0.00177 µM (active) | 0.0185 µM (active) | 0.00254 µM (active) | 0.0376 µM (active) | 0.00724 µM (active) | 0.0228 µM (active) | 0.0243 µM (active) | 4.03 µM (inactive) | 0.0881 µM (active) | 0.00363 µM (active) | 0.0034 µM (active) | 0.0792 µM (active) | 0.00607 µM (active) | 4.23 µM (inactive) | 0.00262 µM (active) |  | 1.99 µM (inactive) | 0.0141 µM (active) |
